Measured values as given in patent US10124033B2, “Peptides and methods of use” (BAXALTA INCORPORATED, priority 2014, dated 2018).
Residues, ends and D or L forms follow the SMILES beside them.

Each compound was assayed against T1, Protein S (Homo sapiens, UniProt P07225) (assay: LANCE IC50 assay (competition TR-FRET) with tracer JBS0684). Conditions: Table 4, multiple substitutions in JBS2572; read-out: LANCE IC50.
T1 sequence (P07225 41-676 limits assumed): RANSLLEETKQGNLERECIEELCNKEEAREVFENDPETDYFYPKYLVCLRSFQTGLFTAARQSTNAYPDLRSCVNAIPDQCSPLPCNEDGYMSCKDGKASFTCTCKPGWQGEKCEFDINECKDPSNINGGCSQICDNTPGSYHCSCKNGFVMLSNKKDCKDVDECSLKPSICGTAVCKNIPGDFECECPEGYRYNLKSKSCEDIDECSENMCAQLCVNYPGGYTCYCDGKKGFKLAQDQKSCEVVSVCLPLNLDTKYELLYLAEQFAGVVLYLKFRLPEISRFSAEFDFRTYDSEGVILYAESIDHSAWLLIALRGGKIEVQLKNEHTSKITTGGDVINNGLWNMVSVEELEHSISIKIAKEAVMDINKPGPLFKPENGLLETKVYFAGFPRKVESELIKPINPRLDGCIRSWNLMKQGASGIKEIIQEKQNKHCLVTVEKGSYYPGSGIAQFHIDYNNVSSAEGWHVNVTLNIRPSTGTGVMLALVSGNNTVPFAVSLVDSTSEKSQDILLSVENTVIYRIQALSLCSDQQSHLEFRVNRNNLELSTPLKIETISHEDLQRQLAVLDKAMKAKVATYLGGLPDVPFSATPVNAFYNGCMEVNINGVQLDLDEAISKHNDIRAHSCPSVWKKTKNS
Type: binding
Experimental: Peptides also were characterized in a competition, homogenous europium-based TR-FRET assay (LANCE IC50 assay) using JBS0684 as a tracer (i.e., competitor for Protein S binding). The following reagents were mixed together in a Perkin-Elmer ProxiPlate MTP well (indicated concentration is the final concentration): Eu-labeled Protein S (10 nM), Ulight™-labeled Streptavidin (100 nM), tracer (JBS0684 (300 nM)), and peptide (titrated in three-fold dilution steps). The final volume was 50 μl/well. The reaction mix was incubated for 1 hour at room temperature, then the fluorescence emission at 665 nm was recorded on a multi-mode reader (SpectraMax® M5, Molecular Devices) using the following instrument settings: Ex 340 nm, Em 665 nm, delay 50 μsec, integration 100 μsec, reads 100. Binding of tracer peptides to soluble europium-labeled Protein S was detected by Streptavidin labeled with an acceptor fluorophor (ULight™). Inhibition of tracer-binding to Protein S by a non-biotinylated peptide results in a decrease of TR-FRET between the Eu-labeled Protein S and ULight™-labeled Streptavidin. IC50 values were obtained from peptide titration curves at constant tracer concentration using non-linear regression of the fluorescence emission signals at 665 nm.
In the case of `CSCC[C@H](NC(=O)[C@H](Cc1ccc(O)cc1)NC(=O)[C@@H](NC(=O)[C@H](CC(=O)O)NC(=O)[C@H](Cc1ccccc1)NC(=O)[C@H](CC(N)=O)NC(=O)[C@H](Cc1ccc(O)cc1)NC(=O)[C@H](CC(=O)O)NC(=O)[C@H](Cc1ccc(O)cc1)NC(=O)[C@H](Cc1c[nH]c2ccccc12)NC(=O)CNC(=O)[C@H](C)NC(=O)[C@H](CO)NC(=O)[C@@H](NC(=O)[C@H](CC(C)C)NC(=O)CNC(=O)[C@@H](NC(C)=O)[C@@H](C)O)C(C)C)[C@@H](C)O)C(=O)N[C@@H](CCC(=O)O)C(=O)N[C@@H](Cc1ccccc1)C(=O)N[C@H](C(N)=O)[C@@H](C)O` [JBS3186] (Ac-TGLVSAGWYDYNFDTYMEFT-NH2), the IC50 is reported as 2.6 nM. Work on `CC(=O)N[C@@H](Cc1ccc(O)cc1)C(=O)NCC(=O)N[C@@H](CC(C)C)C(=O)N[C@H](C(=O)N[C@@H](CO)C(=O)N[C@@H](C)C(=O)NCC(=O)N[C@@H](Cc1c[nH]c2ccccc12)C(=O)N[C@@H](Cc1ccc(O)cc1)C(=O)N[C@@H](CC(=O)O)C(=O)N[C@@H](Cc1ccc(O)cc1)C(=O)N[C@@H](CC(N)=O)C(=O)N[C@@H](Cc1ccccc1)C(=O)N[C@@H](CC(=O)O)C(=O)N[C@H](C(=O)N[C@@H](Cc1ccc(O)cc1)C(=O)N[C@@H](CCCNC(=N)N)C(=O)N[C@@H](CCC(=O)O)C(=O)N[C@@H](Cc1ccccc1)C(=O)N[C@H](C(N)=O)[C@@H](C)O)[C@@H](C)O)C(C)C` [JBS3190] (Ac-YGLVSAGWYDYNFDTYREFT-NH2) yielded an IC50 of 1.6 nM. In the case of `CC(=O)N[C@@H](Cc1ccc(O)cc1)C(=O)NCC(=O)N[C@@H](CC(C)C)C(=O)N[C@H](C(=O)N[C@@H](CO)C(=O)N[C@@H](C)C(=O)NCC(=O)N[C@@H](Cc1c[nH]c2ccccc12)C(=O)N[C@@H](Cc1ccc(O)cc1)C(=O)N[C@@H](CC(=O)O)C(=O)N[C@@H](Cc1ccc(O)cc1)C(=O)N[C@@H](CC(N)=O)C(=O)N[C@@H](Cc1ccccc1)C(=O)N[C@@H](CC(=O)O)C(=O)N[C@H](C(=O)N[C@@H](Cc1ccc(O)cc1)C(=O)N[C@@H](CCCNC(=N)N)C(=O)N[C@@H](CCC(=O)O)C(=O)N[C@@H](Cc1ccccc1)C(=O)N[C@H](C(N)=O)[C@@H](C)O)C(C)C)C(C)C` [JBS3191] (Ac-YGLVSAGWYDYNFDVYREFT-NH2), the IC50 is reported as 1.6 nM.

Each compound was assayed against T1, Protein S (assay: competition (IC50) ELISA with biotinylated tracer peptide JBS0684). Conditions: competition ELISA, tracer JBS0684; re-synthesized peptides.
Type: binding
Experimental: The new peptide candidates were synthesized (purity >60%) and screened for affinity in a competitive binding assay (ELISA IC50) and activity in a thrombin generation assay (CAT). The competition (IC50) ELISA was performed using biotinylated tracer peptide JBS0684 to compete for Protein S-binding with candidate peptides. Peptides that compete with the tracer bind the same region of Protein S as the tracer (and each other). Ninety-six well PolySorp plates (Nunc) were coated with 3 μg/mL Protein S in coating buffer (15 mM Na2CO3, 35 mM NaHCO3, pH 9.6) over night. Plates were washed three times with wash buffer (HNaT: 175 mM NaCl, 25 mM HEPES, 5 mM CaCl2, 0.1% Tween 80, pH 7.35), and blocked with 100 μl 2% yeast extract in HNaT for at least 1 hour. Plates were then washed three times with HNaT. JBS0684 was applied at a concentration corresponding to the EC90 value determined in the binding ELISA. A competitor stock solution of peptide (10 mM) was diluted 1/33.3 in HNaT without HSA, and a serial ⅓ dilution was prepared with HNaT with 3% DMSO. The dilution was further diluted with the biotinylated tracer peptide in a ratio of 1:6 (20 μl competitor dilution and 100 μl tracer peptide). The mixture of competitor and tracer peptide was applied to the Protein S-coated microtiter plate and incubated for 1.5 hours. The plates were washed three times with HNaT. Peptide-Protein S binding was detected by applying HRP-conjugated streptavidin to the microtiter plate, incubating the mixture for one hour, washing the plate three times with HNaT, applying TMB (3,3′5,5′-Tetramethylbenzidin), and detecting the subsequent chromogenic conversion of TMB by HRP. IC50 measurements of peptides are provided herein (see, e.g., Table 3).
For `CC(=O)N[C@H](C(=O)NCC(=O)N[C@@H](Cc1c[nH]cn1)C(=O)N[C@H](C(=O)N[C@@H](CO)C(=O)N[C@@H](C)C(=O)NCC(=O)N[C@@H](Cc1c[nH]c2ccccc12)C(=O)N[C@@H](Cc1ccc(O)cc1)C(=O)N[C@@H](CC(=O)O)C(=O)N[C@@H](Cc1ccc(O)cc1)C(=O)N[C@@H](CC(N)=O)C(=O)N[C@@H](Cc1ccccc1)C(=O)N[C@@H](CC(=O)O)C(=O)N[C@@H](C)C(=O)N[C@@H](Cc1ccc(O)cc1)C(=O)N[C@@H](CCCNC(=N)N)C(=O)N[C@@H](CCC(=O)O)C(=O)N[C@@H](Cc1ccccc1)C(=O)N[C@H](C(N)=O)[C@@H](C)O)C(C)C)[C@@H](C)O` [JBS2528] (Ac-TGHVSAGWYDYNFDAYREFT-NH2), the IC50 was 5.2 nM. For `CC(=O)N[C@H](C(=O)NCC(=O)N[C@@H](Cc1c[nH]cn1)C(=O)N[C@H](C(=O)N[C@@H](CO)C(=O)N[C@@H](C)C(=O)NCC(=O)N[C@@H](Cc1c[nH]c2ccccc12)C(=O)N[C@@H](Cc1ccc(O)cc1)C(=O)N[C@@H](CC(=O)O)C(=O)N[C@@H](Cc1ccc(O)cc1)C(=O)N[C@@H](CC(N)=O)C(=O)N[C@@H](CC(C)C)C(=O)N[C@@H](CC(=O)O)C(=O)N[C@@H](Cc1c[nH]cn1)C(=O)N[C@@H](Cc1ccc(O)cc1)C(=O)N[C@@H](CCCNC(=N)N)C(=O)N[C@@H](CCC(=O)O)C(=O)N[C@@H](Cc1ccccc1)C(=O)N[C@H](C(N)=O)[C@@H](C)O)C(C)C)[C@@H](C)O` [JBS2582] (Ac-TGHVSAGWYDYNLDHYREFT-NH2), the IC50 was 2.3 nM. `CC(=O)N[C@H](C(=O)NCC(=O)N[C@@H](CCCCN)C(=O)N[C@H](C(=O)N[C@@H](CO)C(=O)N[C@@H](C)C(=O)NCC(=O)N[C@@H](Cc1c[nH]c2ccccc12)C(=O)N[C@@H](Cc1ccc(O)cc1)C(=O)N[C@@H](CC(=O)O)C(=O)N[C@@H](Cc1ccc(O)cc1)C(=O)N[C@@H](CC(N)=O)C(=O)N[C@@H](Cc1ccccc1)C(=O)N[C@@H](CC(=O)O)C(=O)N[C@@H](Cc1c[nH]cn1)C(=O)N[C@@H](Cc1ccc(O)cc1)C(=O)N[C@@H](CCCNC(=N)N)C(=O)N[C@@H](CCC(=O)O)C(=O)N[C@@H](Cc1ccccc1)C(=O)N[C@H](C(N)=O)[C@@H](C)O)C(C)C)[C@@H](C)O` [JBS2592] (Ac-TGKVSAGWYDYNFDHYREFT-NH2) showed an IC50 of 5.6 nM. `CC(=O)N[C@H](C(=O)NCC(=O)N[C@@H](Cc1c[nH]cn1)C(=O)N[C@H](C(=O)N[C@@H](CO)C(=O)N[C@@H](C)C(=O)NCC(=O)N[C@@H](Cc1c[nH]c2ccccc12)C(=O)N[C@@H](Cc1ccc(O)cc1)C(=O)N[C@@H](CC(=O)O)C(=O)N[C@@H](Cc1ccc(O)cc1)C(=O)N[C@@H](CC(N)=O)C(=O)N[C@@H](Cc1ccccc1)C(=O)N[C@@H](CC(=O)O)C(=O)N[C@@H](Cc1c[nH]cn1)C(=O)N[C@@H](Cc1ccc(O)cc1)C(=O)N[C@@H](Cc1ccccc1)C(=O)N[C@@H](CCC(=O)O)C(=O)N[C@@H](Cc1ccccc1)C(=O)N[C@H](C(N)=O)[C@@H](C)O)C(C)C)[C@@H](C)O` [JBS2625] (Ac-TGHVSAGWYDYNFDHYFEFT-NH2) gave an IC50 of 1.6 nM. `CC(=O)N[C@H](C(=O)N1CCC[C@H]1C(=O)N[C@@H](Cc1c[nH]cn1)C(=O)N[C@H](C(=O)N[C@@H](CO)C(=O)N[C@@H](C)C(=O)NCC(=O)N[C@@H](Cc1c[nH]c2ccccc12)C(=O)N[C@@H](Cc1ccc(O)cc1)C(=O)N[C@@H](CC(=O)O)C(=O)N[C@@H](Cc1ccc(O)cc1)C(=O)N[C@@H](CC(N)=O)C(=O)N[C@@H](Cc1ccccc1)C(=O)N[C@@H](CC(=O)O)C(=O)N[C@@H](Cc1c[nH]cn1)C(=O)N[C@@H](Cc1ccc(O)cc1)C(=O)N[C@@H](CCCNC(=N)N)C(=O)N[C@@H](CCC(=O)O)C(=O)N[C@@H](Cc1ccccc1)C(=O)N[C@H](C(N)=O)[C@@H](C)O)C(C)C)[C@@H](C)O` [JBS2629] (Ac-TPHVSAGWYDYNFDHYREFT-NH2) was tested, and the IC50 was 3.1 nM. `CC(=O)N[C@H](C(=O)NCC(=O)N[C@@H](Cc1c[nH]cn1)C(=O)N[C@H](C(=O)N[C@@H](CO)C(=O)N[C@@H](C)C(=O)NCC(=O)N[C@@H](Cc1c[nH]c2ccccc12)C(=O)N[C@@H](Cc1ccc(O)cc1)C(=O)N[C@@H](CC(=O)O)C(=O)N[C@@H](Cc1ccc(O)cc1)C(=O)N[C@@H](CC(N)=O)C(=O)N[C@@H](Cc1ccccc1)C(=O)N[C@@H](CC(=O)O)C(=O)N[C@@H](CO)C(=O)N[C@@H](Cc1ccc(O)cc1)C(=O)N[C@@H](CCCNC(=N)N)C(=O)N[C@@H](CCC(=O)O)C(=O)N[C@@H](Cc1ccccc1)C(=O)N[C@H](C(N)=O)[C@@H](C)O)C(C)C)[C@@H](C)O` [JBS2661] (Ac-TGHVSAGWYDYNFDSYREFT-NH2) was tested, and the IC50 was 2.8 nM.
